Patent publication US20220184075A1, “PHARMACEUTICAL COMPOSITION CONTAINING HDAC6 INHIBITOR AS ACTIVE INGREDIENT FOR PREVENTION OR TREATMENT OF ITCHING” (BNH RESEARCH CO.,LTD., priority 2018, published 2022)

Assays:
HDAC6 = target: T1, HDAC6 (Homo sapiens, UniProt Q9UBN7); conditions: cited from earlier work; for Selectivity: HDAC6 inhibitor selectivity, in words; for IC50: HDAC6 inhibitor
T1 sequence (Q9UBN7 1-1215): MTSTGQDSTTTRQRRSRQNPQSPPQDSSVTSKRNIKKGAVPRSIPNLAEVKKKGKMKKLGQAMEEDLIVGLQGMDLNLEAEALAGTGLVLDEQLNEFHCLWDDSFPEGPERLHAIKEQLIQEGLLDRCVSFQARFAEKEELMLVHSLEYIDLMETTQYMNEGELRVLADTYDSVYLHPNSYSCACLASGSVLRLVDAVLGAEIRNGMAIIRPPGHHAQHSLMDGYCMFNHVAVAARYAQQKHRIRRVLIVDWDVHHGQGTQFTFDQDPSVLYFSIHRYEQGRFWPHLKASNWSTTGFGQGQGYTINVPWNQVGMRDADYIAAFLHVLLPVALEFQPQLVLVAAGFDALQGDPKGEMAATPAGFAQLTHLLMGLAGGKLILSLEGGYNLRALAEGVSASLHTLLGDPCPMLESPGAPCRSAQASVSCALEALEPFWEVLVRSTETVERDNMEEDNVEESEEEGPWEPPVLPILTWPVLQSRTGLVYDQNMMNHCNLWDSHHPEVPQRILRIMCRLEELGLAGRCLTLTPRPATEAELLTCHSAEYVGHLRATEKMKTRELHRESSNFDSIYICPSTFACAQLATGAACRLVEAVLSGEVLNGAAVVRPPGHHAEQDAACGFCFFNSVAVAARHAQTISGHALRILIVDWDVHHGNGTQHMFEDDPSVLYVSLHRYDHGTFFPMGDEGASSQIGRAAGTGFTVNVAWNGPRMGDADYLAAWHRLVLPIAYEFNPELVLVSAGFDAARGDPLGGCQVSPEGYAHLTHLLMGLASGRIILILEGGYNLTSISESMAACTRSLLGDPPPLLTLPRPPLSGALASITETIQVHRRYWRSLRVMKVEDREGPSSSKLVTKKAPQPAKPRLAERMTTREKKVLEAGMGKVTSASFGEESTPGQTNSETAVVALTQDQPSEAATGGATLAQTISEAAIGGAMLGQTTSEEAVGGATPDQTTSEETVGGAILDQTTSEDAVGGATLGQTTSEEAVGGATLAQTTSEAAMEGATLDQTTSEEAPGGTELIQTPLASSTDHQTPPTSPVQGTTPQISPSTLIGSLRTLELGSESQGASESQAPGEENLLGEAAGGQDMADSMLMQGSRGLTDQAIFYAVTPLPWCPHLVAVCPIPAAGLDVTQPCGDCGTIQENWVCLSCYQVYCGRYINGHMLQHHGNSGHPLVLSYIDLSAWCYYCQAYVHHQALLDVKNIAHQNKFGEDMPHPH

[1] = tested on: trypsin-induced itching (scratching behavior); test: Trypsin-induced scratching behavior in mice (cheek injection, bouts counted for 30 minutes); type: in vivo, Male C57BL/6 mice; conditions: for number of scratching bouts compared with the only trypsin-injected mice: co-injected with 200 μg trypsin into skin of shaved right cheek, 30 minutes, 7.4 μg tubastatin A HCl or 61.4 ng M344, unpaired t-test
Procedure: Male C57BL/6 mice (6-week-old) were divided into groups of 3 to 5 animals, and isolated under a 12-hour light/dark cycle while being allowed to freely access water and food. Trypsin is diluted in phosphate buffered saline (PBS) to have the working concentration. […] All drug-containing stock solutions were stored in a freezer at −20 □, dissolved immediately prior to the behavioral experiment, and diluted with PBS to the final working concentration. For behavioral experiments, the right cheek of all mice was shaved, and the drug was injected after the acclimation period in an observation chamber for 2 days (2 hours/day) prior to the experiment date and 1 hour on the day of the experiment. The mice were subdued by being gently grabbed by a hand without anesthesia for drug treatment. All drugs were injected into the skin layer of the shaved right cheek at 20 μL using a 31-G insulin syringe. After returning to the observation chamber, all mice were videotaped for 30 minutes immediately after drug injection to evaluate itching behavior. For the behavioral experiment, the action of scratching the drug-injected site with a hind leg, and then placing the leg on the ground again or licking the site with a mouth was counted as 1 bout. All behavioral experiments were evaluated by testers in a blinded drug test. Statistical analysis for the experiments was performed using an unpaired t-test, and P<0.05 or P<0.01 was considered statistically significant (*: P<0.05; **: P<0.01). Data was expressed as mean±standard error (SEM).

O=C(NO)c1cnc(NC2(c3cccc(F)c3)CCCCC2)nc1 [ACY-775]
Selectivity (HDAC6): Very high | IC50 (HDAC6): 7.5 nM

CN1CCc2c(c3ccccc3n2Cc2ccc(C(=O)NO)cc2)C1 [Tubastatin A, tubastatin A]
number of scratching bouts compared with the only trypsin-injected mice [1]: statistically significant smaller number of scratching bouts

CN(C)c1ccc(C(=O)NCCCCCCC(=O)NO)cc1 [M344]
Selectivity (HDAC6): High | IC50 (HDAC6): 88 nM | number of scratching bouts compared with the only trypsin-injected mice [1]: statistically significant smaller number of scratching bouts

trypsin
scratching bouts for 30 minutes ([1]; 200 μg trypsin alone injected into cheek skin of normal mice, FIG. 1): approximately 100 bouts

O=C(NO)C1=CCCC1 [BRD9757]
Selectivity (HDAC6): Very high | IC50 (HDAC6): 30 nM
